From patent publication US8226986B2 (priority 2006, dated 2012)
Like-named read-outs stand apart in the source and are kept apart here. Marks after values point to notes of the source that are not given here.

Key:
Irritable bowel syndrome = details: 25, 50, or 100 mg/kg IP, 10 minutes post IBS model; cited from earlier work
[1] = test system: neutrophil adhesion, leukocyte-mediated inflam.; details: cited from earlier work
[2] = test system: aortic occlusion-induced ischemia/reperfusion (I/R) injury; assay type: in vivo, pig; details: median, initial study
inflammation = details: 1, 5 and 10 mg/kg IP, 1-6 hours before study; cited from earlier work
Cerebral Ischemia = details: 0.18 mmol/kg IP, 24 hours after MCAO; cited from earlier work
[3] = test system: Gastric injury caused by NSAIDS; details: 25, 50, 100, or 150 mol/kg IP, immediately prior; cited from earlier work
[4] = test system: myocardial ishemia-reperfusion injury; details: 3 mg/kg IP, 15 min before LAD; cited from earlier work
cardioprotectant = details: 2.8 umol/kg IV, time zero; cited from earlier work
vascular calcification = details: 2.8 or 14 uM/day, daily; cited from earlier work
erectile dysfunction = details: 0.25-80 umol/kg, Intracaver., before experiment; cited from earlier work
[5] = test system: myocardial ischemia-reperfusion injury; parameters: dose or concentration left out as unconfirmed; details: 1 um, 10 um NaHS, perfusion, 10 min prior to LCA occlusion; cited from earlier work

Nc1ccc(O)c(C(=O)Oc2ccc(-c3cc(=S)ss3)cc2)c1 [ATB-429]
Benefit: pain and inflammation (Irritable bowel syndrome): Pain killing and some

S [NaHS, sodium hydrosulfide]
Benefit: inflammation ([1]; 1-100 uMol/kg IP, 30 min prior to cargeenan injection): inhibits inflammation
Tail moment (comet assay, DNA damage) ([2]; 1 h after clamping): 0.12 §
Tail moment (comet assay, DNA damage) ([2]; 2 h after clamping): 0.12 §
Tail moment (comet assay, DNA damage) ([2]; 4 h after clamping): 0.14
Tail moment (comet assay, DNA damage) ([2]; 8 h after clamping): 0.14
Tail moment (comet assay, DNA damage) ([2]; Before clamping): 0.11
Tail moment (comet assay, DNA damage) ([2]; Before infusion): 0.125
Benefit: substance P levels (inflammation): Increases substance P
infarct volume (Cerebral Ischemia): increased to 150% of % of control
Benefit: injury produced by NSAID and ASA [3]: reduces injury
Benefit: cardioprotection [4]: cardioprotective opens
Benefit: central venous pressure (cardioprotectant): decrease central
Benefit: vascular calcification (vascular calcification): reduces vascular
Benefit: intra-cavernous pressure (erectile dysfunction): Increase intra-

O.[Na+].[SH-] [NaHS•xH2O]
Benefit: infarct size [5]: NAHS, limited infarct

sodium sulfide [Na2S]
Benefit: inflammation ([1]; rat, in vivo, ip): inhibits inflammation
